Assays:
Format in all cases: in vivo
[1] = system: broad-leaf weeds and grass weeds; assay: General screening of herbicidal activity in greenhouse; conditions: 1000 g a.i./hm^2
Outline: (§1)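 Visual growth inhibition rating (0 no effect to 100 all weeds dead or not emerged) after track-sprayer application (500 L/hm²) of emulsifiable concentrate. Treatments either pre-emergence, 24 h after sowing, or post-emergence at 2–3-leaf grass and 2–4-leaf broad-leaf stage, greenhouse-grown.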

[2] = system: Echinochloa crus-galli (L.) Beauv.; assay: Bioassay of herbicidal activity in greenhouse (further screening)
Outline: as §1

[3] = system: Setaria glauca (L.) Beauv.; assay: as above
Outline: as §1

Zinnia elegans Jacq. = assay: as above
Outline: as §1

[4] = system: Abutilon theophrasti Medic.; assay: as above
Outline: as §1

For C#CCOC(=O)C1(C)CC(c2cc(-n3c(=O)cc(C(F)(F)F)n(C)c3=O)ccc2Cl)=NO1 (stereo not shown) [Compound 290], the “pre-emergence and post-emergence herbicidal activity against broad-leaf weeds and grass weeds” value [1] was “good”, the “Growth inhibition rate, Post-emergence treatment, Echinochloa crus-galli (L.) Beauv.” value ([2]; dose 37.5 g a.i./hm^2) was 25% and the “Growth inhibition rate, Post-emergence treatment, Echinochloa crus-galli (L.) Beauv.” value ([2]; dose 150 g a.i./hm^2) was 65%. For the same molecule, the “Growth inhibition rate, Post-emergence treatment, Echinochloa crus-galli (L.) Beauv.” value ([2]; dose 600 g a.i./hm^2) was 70%, the “Growth inhibition rate, Pre-emergence treatment, Echinochloa crus-galli (L.) Beauv.” value ([2]; dose 37.5 g a.i./hm^2) was 0% and the “Growth inhibition rate, Pre-emergence treatment, Echinochloa crus-galli (L.) Beauv.” value ([2]; dose 150 g a.i./hm^2) was 0%. The “Growth inhibition rate, Pre-emergence treatment, Echinochloa crus-galli (L.) Beauv.” value ([2]; dose 600 g a.i./hm^2) was 20%, the “Growth inhibition rate, Post-emergence treatment, Setaria glauca (L.) Beauv.” value ([3]; dose 37.5 g a.i./hm^2) was 40% and the “Growth inhibition rate, Post-emergence treatment, Setaria glauca (L.) Beauv.” value ([3]; dose 150 g a.i./hm^2) was 75%. For the same molecule, the “Growth inhibition rate, Post-emergence treatment, Setaria glauca (L.) Beauv.” value ([3]; dose 600 g a.i./hm^2) was 85%, the “Growth inhibition rate, Pre-emergence treatment, Setaria glauca (L.) Beauv.” value ([3]; dose 37.5 g a.i./hm^2) was 0% and the “Growth inhibition rate, Pre-emergence treatment, Setaria glauca (L.) Beauv.” value ([3]; dose 150 g a.i./hm^2) was 10%. For the same molecule, the “Growth inhibition rate, Pre-emergence treatment, Setaria glauca (L.) Beauv.” value ([3]; dose 600 g a.i./hm^2) was 25%, the “Growth inhibition rate, Post-emergence treatment, Zinnia elegans Jacq.” value (Zinnia elegans Jacq.; dose 37.5 g a.i./hm^2) was 75% and the “Growth inhibition rate, Post-emergence treatment, Zinnia elegans Jacq.” value (Zinnia elegans Jacq.; dose 150 g a.i./hm^2) was 100%. The “Growth inhibition rate, Post-emergence treatment, Zinnia elegans Jacq.” value (Zinnia elegans Jacq.; dose 600 g a.i./hm^2) was 100%, the “Growth inhibition rate, Pre-emergence treatment, Zinnia elegans Jacq.” value (Zinnia elegans Jacq.; dose 37.5 g a.i./hm^2) was 0% and the “Growth inhibition rate, Pre-emergence treatment, Zinnia elegans Jacq.” value (Zinnia elegans Jacq.; dose 150 g a.i./hm^2) was 0%. The “Growth inhibition rate, Pre-emergence treatment, Zinnia elegans Jacq.” value (Zinnia elegans Jacq.; dose 600 g a.i./hm^2) was 20%, the “Growth inhibition rate, Post-emergence treatment, Abutilon theophrasti Medic.” value ([4]; dose 37.5 g a.i./hm^2) was 85% and the “Growth inhibition rate, Post-emergence treatment, Abutilon theophrasti Medic.” value ([4]; dose 150 g a.i./hm^2) was 98%. The “Growth inhibition rate, Post-emergence treatment, Abutilon theophrasti Medic.” value ([4]; dose 600 g a.i./hm^2) was 100%, the “Growth inhibition rate, Pre-emergence treatment, Abutilon theophrasti Medic.” value ([4]; dose 37.5 g a.i./hm^2) was 10% and the “Growth inhibition rate, Pre-emergence treatment, Abutilon theophrasti Medic.” value ([4]; dose 150 g a.i./hm^2) was 35%. The “Growth inhibition rate, Pre-emergence treatment, Abutilon theophrasti Medic.” value ([4]; dose 600 g a.i./hm^2) was 60%.
